Measured values reported in patent US6706740B2, “Fungicidal heterocyclic aromatic amides and their compositions, methods of use and preparation” (Dow AgroSciences LLC, priority 1999, dated 2004).
Read-outs that look alike come from different tables or passages of the source.

Legend:
[1] = system: Septoria tritici—SEPTTR; assay: Leaf Blotch of Wheat, in vivo whole plant, 24 Hour Protectant; conditions: for pest or weed control at 100 ppm: Zymoseptoria tritici, 24 h, read-out: SEPTTR in vivo 1 Day Protectant
[2] = system: Stagonospora nodorum (Leptosphaeria nodorum—LEPTNO); assay: In vitro fungal growth inhibition, Stagonospora nodorum (LEPTNO); format: cell-based; conditions: Leptosphaeria, read-out: LEPTNO in vitro Growth Inhibition
[3] = system: Phytophthora infestans—PHYTIN; assay: whole plant or invertebrate; format: in vivo; conditions: for pest or weed control at 100 ppm: Phytophthora, in Solanum lycopersicum, 24 h, read-out: PHYTIN in vivo 1 Day Protectant
[4] = system: Mycosphaerella graminicola (Septoria tritici—SEPTTR); assay: In vitro fungal growth inhibition, Mycosphaerella graminicola (SEPTTR); format: cell-based; conditions: Zymoseptoria tritici, read-out: SEPTTR in vitro Growth Inhibition
[5] = system: Rhizoctonia solani (RHIZSO); assay: microbe, parasite or virus in culture; format: cell-based; conditions: Rhizoctonia solani, read-out: RHIZSO in vitro Growth Inhibition
[6] = system: Magnaporthe grisea (Pyricularia oryzae—PYRIOR); assay: microbe, parasite or virus in culture; format: cell-based; conditions: Pyricularia oryzae, read-out: PYRIOR in vitro Growth Inhibition
[7] = system: Phytophthora infestans (PHYTIN); assay: microbe, parasite or virus in culture; format: cell-based; conditions: Phytophthora infestans, read-out: PHYTIN in vitro Growth Inhibition
[8] = system: Ustilago maydis (USTIMA); assay: microbe, parasite or virus in culture; format: cell-based; conditions: Mycosarcoma maydis, read-out: USTIMA in vitro Growth Inhibition
[9] = system: Puccinia recondita—PUCCRT; assay: Brown Rust of Wheat, in vivo whole plant, 24 Hour Protectant; conditions: for pest or weed control at 100 ppm: Puccinia, read-out: PUCCRT in vivo 1 Day Protectant
[10] = system: Erysiphe graminis—ERYSGT; assay: Powdery Mildew of Wheat, in vivo whole plant, 24 Hour Protectant; conditions: Erysiphe, read-out: ERYSGT in vivo 1 Day Protectant
[11] = system: Leptosphaeria nodorum—LEPTNO; assay: Glume Blotch of Wheat, in vivo whole plant, 24 Hour Protectant; conditions: for pest or weed control at 100 ppm: Leptosphaeria, read-out: LEPTNO in vivo 1 Day Protectant
[12] = 100 ppm spray, 24 hour protectant, wheat, control of fungal infection vs untreated plants

| SMILES | pest or weed control at 100 ppm [1, 12] | inhibition at 25 ppm ([2]; 25 ppm in growth medium) | pest or weed control at 100 ppm [3] | melting point | inhibition at 25 ppm ([4]; 25 ppm in growth medium) | inhibition at 25 ppm [5] | inhibition at 25 ppm [6] | inhibition at 25 ppm [7] | inhibition at 25 ppm [8] | pest or weed control at 100 ppm [9, 12] | pest or weed control at 100 ppm [10, 12] | pest or weed control at 100 ppm [11, 12] | other results |
| --- | --- | --- | --- | --- | --- | --- | --- | --- | --- | --- | --- | --- | --- |
| COc1ccnc(C(=O)NC2CCc3ccccc3C2=O)c1O (stereo not drawn) [Compound 285] | 25 to 74% | < 80% | < 25% | 174 to 179 °C | < 80% | > 80% | < 80% | < 80% | < 80% | < 25% | < 25% | 25 to 74% | – |
| COc1ccnc(C(=O)N[C@H]2C(O)[C@@H]3CC[C@H]2[C@@H]2CCCC[C@@H]23)c1O (stereo partly drawn) [Compound 293] | 25 to 74% | < 80% | < 25% | 143 to 160 °C (dec.) | < 80% | < 80% | < 80% | < 80% | < 80% | < 25% | < 25% | 25 to 74% | – |
| COc1ccnc(C(=O)NC2CCN(Cc3ccccc3)CC2)c1O.O=C(O)/C=C\C(=O)O [Compound 305] | – | – | – | 145 to 147 °C | – | < 80% | < 80% | < 80% | < 80% | – | – | – | pest or weed control at 100 ppm [1]: < 25%; inhibition at 25 ppm [2]: < 80%; PHYTIN in vivo 1 Day Protectant ([3]; 100 ppm spray, 24 hour protectant, tomato, control of fungal infection vs untreated plants): + +; inhibition at 25 ppm [4]: < 80%; pest or weed control at 100 ppm ([9]; 24 h): < 25%; pest or weed control at 100 ppm ([10]; 24 h): < 25%; pest or weed control at 100 ppm ([11]; 24 h): < 25% |
| COc1ccnc(C(=O)NC2CCN(Cc3ccc(C)cc3)CC2)c1O [Compound 306] | 25 to 74% | < 80% | < 25% | 150 to 152 °C | < 80% | < 80% | < 80% | < 80% | < 80% | < 25% | < 25% | < 25% | – |
| Br.COc1ccnc(C(=O)NC2C[C@@H](Cc3ccccc3)O[C@@H](C)C2)c1O (stereo partly drawn) [Compound 311] | – | – | < 25% | 156 to 158 °C | – | < 80% | < 80% | < 80% | < 80% | – | – | – | SEPTTR in vivo 1 Day Protectant ([1]; in vivo): + +; inhibition at 25 ppm [2]: < 80%; inhibition at 25 ppm [4]: < 80%; pest or weed control at 100 ppm ([9]; 24 h): 25 to 74%; pest or weed control at 100 ppm ([10]; 24 h): < 25%; pest or weed control at 100 ppm ([11]; 24 h): 25 to 74% |
| COc1ccnc(C(=O)N[C@H]2CO[C@](C)(C(C)CC3=C(C)CCCC3(C)C)OC2)c1O (stereo partly drawn) [Compound 319] | 25 to 74% | < 80% | < 25% | 139 to 140 °C | < 80% | < 80% | < 80% | < 80% | < 80% | – | 25 to 74% | < 25% | PUCCRT in vivo 1 Day Protectant [9, 12]: + + |
| COc1ccnc(C(=O)NC2CC3OC2C(C)C(OC(=O)C(C)C)C3C)c1O (stereo not drawn) [Compound 320] | 25 to 74% | < 80% | < 25% | 108.5 to 109.5 °C | < 80% | < 80% | < 80% | < 80% | < 80% | < 25% | < 25% | 25 to 74% | – |
| COc1ccnc(C(=O)NC2CSCC(c3ccccc3)C2)c1O (stereo not drawn) [Compound 324] | 25 to 74% | > 80% | < 25% | 141 to 143 °C | > 80% | > 80% | < 80% | > 80% | > 80% | 25 to 74% | 25 to 74% | – | LEPTNO in vivo 1 Day Protectant [11, 12]: + + |
